According to US20230085307A1, “PYRIDAZINONE COMPOUND AND HERBICIDE” (NISSAN CHEMICAL CORPORATION, priority 2019, published 2023):

Experiments:
blackgrass = assay: Test Example 5: herbicidal effect by foliage application, plastic box (Table 20, symbol J); format: in vivo, blackgrass (Alopecurus myosuroides); conditions: foliage application
Outline: (§1)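 Plants were sown into sterilized diluvial soil under about 1.5 cm cover and kept in a greenhouse at 25° C. to 30° C. Fourteen days on, foliage received an even spray of the diluted emulsion. Herbicidal or crop effect was judged three weeks afterwards.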

barnyard grass [1] = assay: Test Example 5: herbicidal effect by foliage application, plastic box (Table 20, symbol H); format: in vivo, barnyard grass (Echinochloa crus-galli); conditions: foliage application
Outline: as §1

late watergrass = assay: Test Example 1: herbicidal activity, application before weed generation under submerged conditions (Table 16, symbol A); format: in vivo, late watergrass (Echinochloa oryzicola)
Description: (§2) [Test Example 1] Herbicidal Activity Test by Application before Weed Generation under Submerged Conditions After alluvial soil was placed into 1/10000 are of Wagner pot, water was poured and mixed to form a submerged condition having a water depth of 4 cm. Seeds of late watergrass, Japanese bulrush, and oval-leafed pondweed were sowed in a mixed manner in the aforementioned pot, and then 2.5 leaf stage rice plant seedlings were transplanted thereto. On the day of sowing seeds, the emulsion agent of the compound of the present invention prepared according to Formulation Example 2 was diluted with water so as to achieve a predetermined herbicide amount, and the diluted emulsion agent was applied to the surface of the water. The pot was placed in a greenhouse at 25° C. to 30° C. for growth of the plants. Three weeks after the herbicide application, the effect of the herbicide on each plant was evaluated according to the following criteria. Evaluation Criteria 5: Herbicidal rate of 90% or more (almost completely withered) 4: Herbicidal rate of 70% or more and less than 90% 3: Herbicidal rate of 40% or more and less than 70% 2: Herbicidal rate of 20% or more and less than 40% 1: Herbicidal rate of 5% or more and less than 20% 0: Herbicidal rate of 5% or less (almost no effect)

persian speedwell = assay: Test Example 5: herbicidal effect by foliage application, plastic box (Table 20, symbol R); format: in vivo, Persian speedwell (Veronica persica); conditions: foliage application
Outline: as §1

green foxtail = assay: Test Example 5: herbicidal effect by foliage application, plastic box (Table 20, symbol G); format: in vivo, green foxtail (Setaria viridis); conditions: foliage application
Outline: as §1

Japanese bulrush = assay: Test Example 1: herbicidal activity, application before weed generation under submerged conditions (Table 16, symbol B); format: in vivo, Japanese bulrush (Schoenoplectus juncoides)
Outline: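 Alluvial soil was flooded to 4 cm depth, weed seeds were sown mixed and 2.5-leaf rice seedlings were transplanted. On sowing day, the compound's emulsion, diluted in water to a set dose, was applied to the water surface. Plants grew at 25–30 °C and were scored 0–5 after three weeks.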

rice flat sedge = assay: Test Example 3: herbicidal effect by foliage application, Wagner pot (Table 18, symbol E); format: in vivo, rice flat sedge (Cyperus iria)
Outline: (§3)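 Plants were sown in alluvial soil held under 0.1–0.5 cm standing water and grown 14 days in a greenhouse at 25–30 °C. An emulsifiable formulation, water-diluted to the set dose, was then sprayed onto the foliage, and effects were scored three weeks later using previously defined criteria.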

lambsquarters = assay: Test Example 5: herbicidal effect by foliage application, plastic box (Table 20, symbol O); format: in vivo, lambsquarters (Chenopodium album); conditions: foliage application
Outline: as §1

oval-leafed pondweed = assay: Test Example 1: herbicidal activity, application before weed generation under submerged conditions (Table 16, symbol C); format: in vivo, oval-leafed pondweed (Monochoria vaginalis)
Description: as §2

velvetleaf = assay: Test Example 5: herbicidal effect by foliage application, plastic box (Table 20, symbol M); format: in vivo, velvetleaf (Abutilon theophrasti); conditions: foliage application
Outline: as §1

windgrass = assay: Test Example 5: herbicidal effect by foliage application, plastic box (Table 20, symbol L); format: in vivo, windgrass (Apera spica-venti); conditions: foliage application
Outline: as §1

barnyard grass [2] = assay: Test Example 3: herbicidal effect by foliage application, Wagner pot (Table 18, symbol H); format: in vivo, barnyard grass (Echinochloa crus-galli)
Outline: as §3

Chinese sprangletop = assay: Test Example 3: herbicidal effect by foliage application, Wagner pot (Table 18, symbol D); format: in vivo, chinese sprangletop (Leptochloa chinensis)
Outline: as §3

Italian ryegrass = assay: Test Example 5: herbicidal effect by foliage application, plastic box (Table 20, symbol K); format: in vivo, Italian ryegrass (Lolium multiflorum); conditions: foliage application
Outline: as §1

southern crabgrass = assay: Test Example 5: herbicidal effect by foliage application, plastic box (Table 20, symbol F); format: in vivo, southern crabgrass (Digitaria ciliaris); conditions: foliage application
Outline: as §1

wild oat = assay: Test Example 5: herbicidal effect by foliage application, plastic box (Table 20, symbol I); format: in vivo, wild oat (Avena fatua); conditions: foliage application
Outline: as §1

chickweed = assay: Test Example 5: herbicidal effect by foliage application, plastic box (Table 20, symbol P); format: in vivo, common chickweed (Stellaria media); conditions: foliage application, 320 g/ha, three weeks after application
Outline: as §1

[3] = 80 g/ha, 3 weeks after application
[4] = 320 g/ha, three weeks after application
[5] = amount of applied herbicide 320 g/ha

CC#CCOc1ccc(-c2sc3ccccc3c2-c2c(O)c(C)nn(C)c2=O)cc1 [1-219]
effect on blackgrass (J) (blackgrass; [3]): 4 (Herbicidal rate of 70% or more and less than 90%)
effect on barnyard grass (H) (barnyard grass [1]; [3]): 4 (Herbicidal rate of 70% or more and less than 90%)
Herbicidal effect on A: late watergrass (grade 0-5) (late watergrass; 80 g/ha applied herbicide): 5 (Herbicidal rate of 90% or more (almost completely withered))
effect on persian speedwell (R) (persian speedwell; [3]): 5 (Herbicidal rate of 90% or more (almost completely withered))
effect on green foxtail (G) (green foxtail; [3]): 5 (Herbicidal rate of 90% or more (almost completely withered))
Herbicidal effect on B: Japanese bulrush (grade 0-5) (Japanese bulrush; 80 g/ha applied herbicide): 3 (Herbicidal rate of 40% or more and less than 70%)
herbicidal effect on E (rice flat sedge), rating 0-5 (rice flat sedge; 80 g/ha): 3 (Herbicidal rate of 40% or more and less than 70%)
effect on lambsquarters (O) (lambsquarters; [3]): 5 (Herbicidal rate of 90% or more (almost completely withered))
Herbicidal effect on C: oval-leafed pondweed (grade 0-5) (oval-leafed pondweed; 80 g/ha applied herbicide): 3 (Herbicidal rate of 40% or more and less than 70%)
effect on velvetleaf (M) (velvetleaf; [3]): 4 (Herbicidal rate of 70% or more and less than 90%)
effect on windgrass (L) (windgrass; [3]): 0 (Herbicidal rate of 5% or less (almost no effect))
herbicidal effect on H (barnyard grass), rating 0-5 (barnyard grass [2]; 80 g/ha): 5 (Herbicidal rate of 90% or more (almost completely withered))
herbicidal effect on D (Chinese sprangletop), rating 0-5 (Chinese sprangletop; 80 g/ha): 5 (Herbicidal rate of 90% or more (almost completely withered))
effect on Italian ryegrass (K) (Italian ryegrass; [3]): 5 (Herbicidal rate of 90% or more (almost completely withered))
effect on southern crabgrass (F) (southern crabgrass; [3]): 3 (Herbicidal rate of 40% or more and less than 70%)
effect on wild oat (I) (wild oat; [3]): 1 (Herbicidal rate of 5% or more and less than 20%)

CCc1nn(C)c(=O)c(-c2c(-c3ccccc3OC)sc3ccc(F)cc23)c1O [2-414]
J: blackgrass, herbicidal effect grade (blackgrass; [4]): 2 (Herbicidal rate of 20% or more and less than 40%)
H: barnyard grass, herbicidal effect grade (barnyard grass [1]; [4]): 3 (Herbicidal rate of 40% or more and less than 70%)
Herbicidal effect, A: late watergrass (late watergrass; [5]): 2 (Herbicidal rate of 20% or more and less than 40%)
R: persian speedwell, herbicidal effect grade (persian speedwell; [4]): 5 (Herbicidal rate of 90% or more (almost completely withered))
G: green foxtail, herbicidal effect grade (green foxtail; [4]): 2 (Herbicidal rate of 20% or more and less than 40%)
Herbicidal effect, B: Japanese bulrush (Japanese bulrush; [5]): 3 (Herbicidal rate of 40% or more and less than 70%)
herbicidal effect on E: rice flat sedge (rice flat sedge; [5]): 3 (Herbicidal rate of 40% or more and less than 70%)
O: lambsquarters, herbicidal effect grade (lambsquarters; [4]): 3 (Herbicidal rate of 40% or more and less than 70%)
P: chickweed, herbicidal effect grade (chickweed): 5 (Herbicidal rate of 90% or more (almost completely withered))
Herbicidal effect, C: oval-leafed pondweed (oval-leafed pondweed; [5]): 2 (Herbicidal rate of 20% or more and less than 40%)
M: velvetleaf, herbicidal effect grade (velvetleaf; [4]): 3 (Herbicidal rate of 40% or more and less than 70%)
L: windgrass, herbicidal effect grade (windgrass; [4]): 3 (Herbicidal rate of 40% or more and less than 70%)
herbicidal effect on H: barnyard grass (barnyard grass [2]; [5]): 4 (Herbicidal rate of 70% or more and less than 90%)
herbicidal effect on D: Chinese sprangletop (Chinese sprangletop; [5]): 3 (Herbicidal rate of 40% or more and less than 70%)
K: Italian ryegrass, herbicidal effect grade (Italian ryegrass; [4]): 1 (Herbicidal rate of 5% or more and less than 20%)
F: southern crabgrass, herbicidal effect grade (southern crabgrass; [4]): 1 (Herbicidal rate of 5% or more and less than 20%)
I: wild oat, herbicidal effect grade (wild oat; [4]): 0 (Herbicidal rate of 5% or less (almost no effect))
